This note sets out measurements from publication PMC9399118, “Pentadecanoylcarnitine is a newly discovered endocannabinoid with pleiotropic activities relevant to supporting physical and mental health” (Scientific Reports, 2022).

Structures are written as SMILES.

In test [1] the target is T1, histamine H1 receptor (H1R) (Homo sapiens, UniProt P35367).
T1 construct: gene HRH1; full-length receptor expected in commercial panel cell line (Eurofins/DiscoverX SafetyScan47)
Briefly: cell-based SafetyScan47 dose-response assay, […] doses. As to conditions: read-out: half-maximal inhibitory concentration.

The target in test [2] is T2, cannabinoid receptor 2 (CB2) (Homo sapiens, UniProt P34972).
T2 construct: gene CNR2; full-length receptor expected in commercial panel cell line (Eurofins/DiscoverX SafetyScan47)
Kind of test: cell-based GPCR cAMP modulation assay, […] doses. As to conditions: read-out: half-maximal effective concentration.

Test [3] concerns the target T3, serotonin 1A receptor (5-HT1A) (Homo sapiens, UniProt P08908).
T3 construct: gene HTR1A; full-length receptor expected in commercial panel cell line (Eurofins/DiscoverX SafetyScan47)
Briefly: cell-based SafetyScan47 dose-response assay, […] doses. As to conditions: read-out: half-maximal effective concentration.

The target of test [4] is T4, serotonin 1B receptor (5-HT1B) (Homo sapiens, UniProt P28222).
T4 construct: gene HTR1B; full-length receptor expected in commercial panel cell line (Eurofins/DiscoverX SafetyScan47)
Described as above. As to conditions: read-out: half-maximal effective concentration.

In test [5] the target is T5, histamine H2 receptor (H2R) (Homo sapiens, UniProt P25021).
T5 construct: gene HRH2; full-length receptor expected in commercial panel cell line (Eurofins/DiscoverX SafetyScan47)
Described as above. As to conditions: read-out: half-maximal inhibitory concentration.

Test [6] has as its target T6, cannabinoid receptor 1 (CB1) (Homo sapiens, UniProt P21554).
T6 construct: gene CNR1; full-length receptor expected in commercial panel cell line (Eurofins/DiscoverX SafetyScan47)
Kind of test: cell-based GPCR cAMP modulation assay, […] doses. As to conditions: read-out: half-maximal effective concentration.

T2 sequence (P34972 whole entry): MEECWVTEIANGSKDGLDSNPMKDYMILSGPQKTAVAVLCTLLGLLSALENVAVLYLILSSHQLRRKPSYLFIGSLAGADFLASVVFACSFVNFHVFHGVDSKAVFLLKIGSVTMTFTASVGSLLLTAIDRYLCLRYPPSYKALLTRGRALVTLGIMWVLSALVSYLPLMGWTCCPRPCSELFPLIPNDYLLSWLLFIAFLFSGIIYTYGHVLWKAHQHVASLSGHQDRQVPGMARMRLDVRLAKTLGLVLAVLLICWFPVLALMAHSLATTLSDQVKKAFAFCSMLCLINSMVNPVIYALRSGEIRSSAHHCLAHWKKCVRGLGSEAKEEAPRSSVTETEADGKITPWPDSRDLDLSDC
T3 sequence (P08908 whole entry): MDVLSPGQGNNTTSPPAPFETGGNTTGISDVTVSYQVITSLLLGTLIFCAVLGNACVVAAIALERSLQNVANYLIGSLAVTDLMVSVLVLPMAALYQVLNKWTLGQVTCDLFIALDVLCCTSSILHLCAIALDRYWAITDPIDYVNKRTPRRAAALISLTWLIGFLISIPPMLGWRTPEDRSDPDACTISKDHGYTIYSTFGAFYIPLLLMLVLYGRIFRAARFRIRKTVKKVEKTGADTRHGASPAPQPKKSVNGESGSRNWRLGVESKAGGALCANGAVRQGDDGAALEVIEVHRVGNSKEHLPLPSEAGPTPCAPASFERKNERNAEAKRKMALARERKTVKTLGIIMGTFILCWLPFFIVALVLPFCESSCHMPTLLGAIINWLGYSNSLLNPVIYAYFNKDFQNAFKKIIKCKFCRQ
T6 sequence (P21554 whole entry): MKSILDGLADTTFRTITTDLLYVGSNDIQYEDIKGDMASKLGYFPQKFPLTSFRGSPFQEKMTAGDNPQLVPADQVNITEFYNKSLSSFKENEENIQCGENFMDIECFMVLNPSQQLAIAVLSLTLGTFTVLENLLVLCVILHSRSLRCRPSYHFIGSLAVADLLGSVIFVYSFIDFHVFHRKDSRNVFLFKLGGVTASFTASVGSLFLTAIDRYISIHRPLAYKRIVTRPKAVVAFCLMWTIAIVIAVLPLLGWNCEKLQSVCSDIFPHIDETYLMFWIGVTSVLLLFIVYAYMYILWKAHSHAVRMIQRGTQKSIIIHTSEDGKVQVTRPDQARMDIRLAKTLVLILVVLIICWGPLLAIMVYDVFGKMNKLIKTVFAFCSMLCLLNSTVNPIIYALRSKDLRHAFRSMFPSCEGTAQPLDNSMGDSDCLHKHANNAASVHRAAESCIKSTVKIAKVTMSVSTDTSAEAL
T1 sequence (P35367 whole entry): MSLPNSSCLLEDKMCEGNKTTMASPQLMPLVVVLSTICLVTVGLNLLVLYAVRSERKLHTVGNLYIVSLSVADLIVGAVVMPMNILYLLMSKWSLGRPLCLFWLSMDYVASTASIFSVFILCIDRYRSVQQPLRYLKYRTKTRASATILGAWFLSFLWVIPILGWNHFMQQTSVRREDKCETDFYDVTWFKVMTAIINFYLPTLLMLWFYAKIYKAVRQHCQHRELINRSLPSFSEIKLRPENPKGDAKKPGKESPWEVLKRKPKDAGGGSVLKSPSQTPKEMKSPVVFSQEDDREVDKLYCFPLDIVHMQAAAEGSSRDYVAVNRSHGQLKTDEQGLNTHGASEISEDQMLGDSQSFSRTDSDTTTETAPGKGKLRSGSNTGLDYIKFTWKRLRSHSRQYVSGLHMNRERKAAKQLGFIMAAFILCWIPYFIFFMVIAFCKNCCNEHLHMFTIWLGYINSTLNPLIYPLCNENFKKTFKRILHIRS
T4 sequence (P28222 whole entry): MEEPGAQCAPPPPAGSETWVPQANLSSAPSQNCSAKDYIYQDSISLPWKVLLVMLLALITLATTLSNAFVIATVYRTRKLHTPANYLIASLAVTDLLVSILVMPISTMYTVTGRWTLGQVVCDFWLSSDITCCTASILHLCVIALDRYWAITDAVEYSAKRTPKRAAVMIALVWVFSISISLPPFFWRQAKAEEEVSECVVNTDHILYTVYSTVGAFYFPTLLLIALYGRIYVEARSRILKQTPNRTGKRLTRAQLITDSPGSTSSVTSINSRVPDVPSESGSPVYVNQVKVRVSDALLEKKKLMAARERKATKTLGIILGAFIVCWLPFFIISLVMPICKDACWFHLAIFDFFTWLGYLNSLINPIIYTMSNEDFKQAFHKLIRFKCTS
T5 sequence (P25021 whole entry): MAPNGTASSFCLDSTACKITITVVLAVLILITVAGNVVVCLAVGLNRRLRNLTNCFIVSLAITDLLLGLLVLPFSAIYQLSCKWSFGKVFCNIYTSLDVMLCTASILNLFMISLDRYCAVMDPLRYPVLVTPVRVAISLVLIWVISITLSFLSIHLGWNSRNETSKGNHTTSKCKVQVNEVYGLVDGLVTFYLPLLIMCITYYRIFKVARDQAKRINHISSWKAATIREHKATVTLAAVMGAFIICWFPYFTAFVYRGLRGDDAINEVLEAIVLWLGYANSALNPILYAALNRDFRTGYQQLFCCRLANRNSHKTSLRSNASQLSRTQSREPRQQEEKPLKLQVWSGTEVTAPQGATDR

With `CCCCCCCCCCCCCCC(=O)O[C@H](CC(=O)[O-])C[N+](C)(C)C` [pentadecanoylcarnitine], the IC50 in test [1] was 10.9 µM; in test [5], 6.1 µM. For the same compound, the EC50 in test [2] was determined as 3.2 µM; in test [3] it was 9.6 µM; in test [4] it was 9.3 µM; in test [6] it was 3.7 µM.
